Measured values: patent US9862678B2, “3,4-diaminobenzenesulfonamide derivatives for inhibiting cell death” (VIB VZW, priority 2014, dated 2018)

System: IMR-32 neuroblastoma cell line
Assay: Inhibition of erastin-induced ferroptosis in IMR-32 cells (Sytox Green cell death readout)
Type: cell-based
Settings: Homo sapiens; inhibiting ferroptosis in the IMR-32 neuroblastoma cell line stimulated with 10 μM erastin; compounds 1 nM to 1 μM, triplicate
Method: In the present disclosure, the potency of a compound inhibiting (or reducing) ferroptosis and/or oxytosis are determined in in vitro or in vivo assays. Typically in vitro assays are used to measure the potency of a candidate compound. Examples of suitable in vitro assays are cellular assays. One non-limiting example of an assay involves the use of the IMR-32 neuroblastoma cell line. The latter is stimulated to enter into ferroptosis upon stimulation with 10 μM erastin, a documented ferroptosis inducer (see, for example, Dixon et al. (2012) Cell 149, 1060-1072, and ferroptosis inhibitors are evaluated for the prevention of erastin-induced ferroptosis. Yet another assay is based the glutamate-induced cell death in the hippocampal cell line HT22 and ferroptosis/oxytosis inhibitors are evaluated for the prevention of cell death (see N. Henke et al. (2013) Cell Death and Disease 4, e470). Still another assay is based on the sorafinib-induced cell death (described to be iron dependent cell death) in hepatocellular carcinoma cells and ferroptosis inhibitors are evaluated for the prevention of cell death (see C. Louandre et al. (2013) Int. J. Cancer 133, 1732). The calculated potency of a compound inhibiting ferroptosis and/or oxytosis is typically depicted as an IC50 value. Examples of suitable in vivo assays are typically pre-clinical disease models of, for example, mice for the diseases benefiting the application of ferroptosis and/or oxytosis inhibitors, as described herein. One non-limiting example of an in vivo assay is based on inducing liver damage in mice by administering the herbicide diquat dibromide monohydrate and ferroptosis inhibitors are evaluated based on reduced levels of liver transaminases in serum (see Q. Ran et al. (2004) J. Biol. Chem. 279, 53, 55137).
The IC50 values for the individual compounds of the disclosure were determined in the neuroblastoma, IMR-32 cell line. In brief, IMR-32 cells were subjected to 10 μM erastin, the latter compound is known to induce ferroptosis. A concentration gradient (ranging from 1 nM to 1 μM) of the compounds was applied to the cells. These experiments were performed in a 96-well format (in triplicate), and cell death was analyzed in a fluorescent plate reader by use of a fluorescent cell death dye (1.5 μM Sytox Green). The IC50 values depicted in Table 1 are the concentration values for the individual compounds which are able to overcome ferroptosis.

Question: For `CCNS(=O)(=O)c1ccc(NC2CC3CCC2C3)c(NCc2ccncc2)c1` (stereo not drawn) [Compound 41, 4-(bicyclo[2.2.1]heptan-2-ylamino)-N-ethyl-3-((pyridin-4-ylmethyl)amino) benzenesulfonamide], which IC50 is on record?
Answer: Its IC50 is 9.4 nM.

Question: For `CCNS(=O)(=O)c1ccc(NC2C3CC4CC(C3)CC2C4)c(NCc2cncnc2)c1` (stereo not drawn) [Compound 46, 4-(adamantan-2-ylamino)-N-ethyl-3-((pyrimidin-5-ylmethyl)amino)benzenesulfonamide], which IC50 is on record?
Answer: The IC50 was 47 nM.

Question: With `CCNS(=O)(=O)c1ccc(NC2CC2)c(NCc2ccccc2)c1` [Compound 33, 3-(benzylamino)-4-(cyclopropylamino)-N-ethylbenzenesulfonamide] as the compound, how does the IC50 read?
Answer: The IC50 was 61 nM.

Question: For `CCNS(=O)(=O)c1ccc(NC2CCCCCCC2)c(NCc2ccccc2)c1` [Compound 42, 3-(benzylamino)-4-(cyclooctylamino)-N-ethylbenzenesulfonamide], which IC50 is on record?
Answer: The IC50 was 2.4 nM.

Question: Which IC50 does the source give for `CCNS(=O)(=O)c1ccc(NC2CC3CCC2C3)c(N)c1` (stereo not drawn) [Compound 23, 3-amino-4-(bicyclo[2.2.1]heptan-2-ylamino)-N-ethylbenzenesulfonamide] here?
Answer: The IC50 was 28 nM.

Question: Which IC50 does the source give for `CCNS(=O)(=O)c1ccc(NC2CCCCC2)c(NCc2ccncc2)c1` [Compound 38, 4-(cyclohexylamino)-N-ethyl-3-((pyridin-4-ylmethyl)amino)benzenesulfonamide] here?
Answer: Its IC50 is 23 nM.

Question: For `CCNS(=O)(=O)c1ccc(NC2CCCC2)c(NCc2ccncc2)c1` [Compound 36, 4-(cyclopentylamino)-N-ethyl-3-((pyridin-4-ylmethyl)amino)benzenesulfonamide], which IC50 is on record?
Answer: The IC50 was 36 nM.

Question: For `Nc1cc(S(=O)(=O)N2CCOCC2)ccc1NC1CCCCC1` [Compound 32, N1-cyclohexyl-4-(morpholinosulfonyl)benzene-1,2-diamine], which IC50 is on record?
Answer: The IC50 was 208 nM.

Question: For `CCNS(=O)(=O)c1ccc(NC2CC2)c(N)c1` [Compound 20, 3-amino-4-(cyclopropylamino)-N-ethylbenzenesulfonamide], which IC50 is on record?
Answer: Its IC50 is 76 nM.

Question: With `CC(C)(C)OCCNS(=O)(=O)c1ccc(NC2CCCCC2)c(NCc2ccccc2)c1` [Compound 55, 3-(benzylamino)-N-(2-(tert-butoxy)ethyl)-4-(cyclohexylamino)benzenesulfonamide] as the compound, how does the IC50 read?
Answer: The IC50 was 22 nM.

Question: With `CN1CCN(S(=O)(=O)c2ccc(NC3CCCCC3)c(N)c2)CC1` [Compound 31, N1-cyclohexyl-4-((4-methylpiperazin-1-yl)sulfonyl)benzene-1,2-diamine] as the compound, how does the IC50 read?
Answer: Its IC50 is 206 nM.

Question: For `CC(C)(C)OCCNS(=O)(=O)c1ccc(NC2CCCCC2)c(N)c1` [Compound 30, 3-amino-N-(2-(tert-butoxy)ethyl)-4-(cyclohexylamino)benzenesulfonamide], which IC50 is on record?
Answer: Its IC50 is 132 nM.

Question: With `CCNS(=O)(=O)c1ccc(NC2CCCC2)c(N)c1` [Compound 21, 3-amino-4-(cyclopentylamino)-N-ethylbenzenesulfonamide] as the compound, how does the IC50 read?
Answer: The IC50 was 82 nM.

Question: With `CC(C)(C)NS(=O)(=O)c1ccc(NC2CCCCC2)c(NCc2ccccc2)c1` [Compound 51, 3-(benzylamino)-N-(tert-butyl)-4-(cyclohexylamino)benzenesulfonamide] as the compound, how does the IC50 read?
Answer: Its IC50 is 6.2 nM.

Question: For `CNS(=O)(=O)c1ccc(NC2C3CC4CC(C3)CC2C4)c(NCc2ccncc2)c1` (stereo not drawn) [Compound 50, 4-(adamantan-2-ylamino)-N-methyl-3-((pyridin-4-ylmethyl)amino)benzenesulfonamide], which IC50 is on record?
Answer: The IC50 was 6.4 nM.

Question: For `CCNS(=O)(=O)c1ccc(NC2CC2)c(NCc2ccncc2)c1` [Compound 34, 4-(cyclopropylamino)-N-ethyl-3-((pyridin-4-ylmethyl)amino)benzenesulfonamide], which IC50 is on record?
Answer: The IC50 was 128 nM.

Question: For `CCNS(=O)(=O)c1ccc(NC2CCCCCCC2)c(N)c1` [Compound 24, 3-amino-4-(cyclooctylamino)-N-ethylbenzenesulfonamide], which IC50 is on record?
Answer: The IC50 was 9.3 nM.

Question: Which IC50 does the source give for `CCNS(=O)(=O)c1ccc(NC2CC3CCC2C3)c(NCc2ccccc2)c1` (stereo not drawn) [Compound 40, 3-(benzylamino)-4-(bicyclo[2.2.1]heptan-2-ylamino)-N-ethylbenzenesulfonamide] here?
Answer: The IC50 was 3 nM.

Question: For `CNS(=O)(=O)c1ccc(NC2CCCCC2)c(N)c1` [Compound 26, 3-amino-4-(cyclohexylamino)-N-methylbenzenesulfonamide], which IC50 is on record?
Answer: Its IC50 is 76 nM.

Question: Which IC50 does the source give for `CC(C)(C)NS(=O)(=O)c1ccc(NC2C3CC4CC(C3)CC2C4)c(N)c1` (stereo not drawn) [Compound 29, 3-amino-N-(tert-butyl)-4-(adamantan-2-ylamine)benzenesulfonamide] here?
Answer: The IC50 was 6 nM.

Question: For `CC(C)(C)NS(=O)(=O)c1ccc(NC2CCCCC2)c(N)c1` [Compound 28, 3-amino-N-(tert-butyl)-4-(cyclohexylamino)benzenesulfonamide], which IC50 is on record?
Answer: Its IC50 is 27 nM.

Question: Which IC50 does the source give for `CC(C)(C)NS(=O)(=O)c1ccc(NC2C3CC4CC(C3)CC2C4)c(NCc2ccccc2)c1` (stereo not drawn) [Compound 53, 4-(adamantan-2-ylamino)-3-(benzylamino)-N-(tert-butyl)benzenesulfonamide] here?
Answer: The IC50 was 3.4 nM.

Question: With `CCNS(=O)(=O)c1ccc(NC2CCCC2)c(NCc2ccccc2)c1` [Compound 35, 3-(benzylamino)-4-(cyclopentylamino)-N-ethylbenzenesulfonamide] as the compound, how does the IC50 read?
Answer: The IC50 was 8.2 nM.

Question: For `CNS(=O)(=O)c1ccc(NC2C3CC4CC(C3)CC2C4)c(N)c1` (stereo not drawn) [Compound 27, 3-amino-4-(adamantan-2-ylamine)-N-methylbenzenesulfonamide], which IC50 is on record?
Answer: The IC50 was 11 nM.

Question: For `CNS(=O)(=O)c1ccc(NC2CCCCC2)c(NCc2ccncc2)c1` [Compound 48, 4-(cyclohexylamino)-N-methyl-3-((pyridin-4-ylmethyl)amino)benzenesulfonamide], which IC50 is on record?
Answer: The IC50 was 15 nM.

Question: With `CC(C)(C)NS(=O)(=O)c1ccc(NC2C3CC4CC(C3)CC2C4)c(NCc2ccncc2)c1` (stereo not drawn) [Compound 54, 4-(adamantan-2-ylamino)-N-(tert-butyl)-3-((pyridin-4-ylmethyl)amino)benzenesulfonamide] as the compound, how does the IC50 read?
Answer: Its IC50 is 5.2 nM.

Question: With `CNS(=O)(=O)c1ccc(NC2C3CC4CC(C3)CC2C4)c(NCc2ccccc2)c1` (stereo not drawn) [Compound 49, 4-(adamantan-2-ylamino)-3-(benzylamino)-N-methylbenzenesulfonamide] as the compound, how does the IC50 read?
Answer: Its IC50 is 4.9 nM.

Question: For `CCNS(=O)(=O)c1ccc(NC2CCCCCCC2)c(NCc2ccncc2)c1` [Compound 43, 4-(cyclooctylamino)-N-ethyl-3-((pyridin-4-ylmethyl)amino)benzenesulfonamide], which IC50 is on record?
Answer: The IC50 was 22 nM.

Question: With `CCNS(=O)(=O)c1ccc(NC2C3CC4CC(C3)CC2C4)c(N)c1` (stereo not drawn) [Compound 25, 4-(adamantan-2-ylamino)-3-amino-N-ethylbenzenesulfonamide] as the compound, how does the IC50 read?
Answer: Its IC50 is 17 nM.

Question: For `CC(C)(C)NS(=O)(=O)c1ccc(NC2CCCCC2)c(NCc2ccncc2)c1` [Compound 52, N-(tert-butyl)-4-(cyclohexylamino)-3-((pyridin-4-ylmethyl)amino)benzenesulfonamide], which IC50 is on record?
Answer: The IC50 was 11 nM.

Question: With `CNS(=O)(=O)c1ccc(NC2CCCCC2)c(NCc2ccccc2)c1` [Compound 47, 3-(benzylamino)-4-(cyclohexylamino)-N-methylbenzenesulfonamide] as the compound, how does the IC50 read?
Answer: The IC50 was 3.7 nM.

System: not listed separately
Assay: Kinetic solubility (turbidity)
Type: physicochemical
Settings: aqueous buffer, kinetic from dmso stock; kinetic solubility by turbidity; test range 3.125 μM to 200 μM; 10 mM PBS pH 7.4
Method: Unless otherwise stated, laboratory reagent grade solvents were used. Reagents were obtained from Sigma-Aldrich, Acros Organics or Fluorochem and were used without further purification. Characterization of all compounds was done with ^1H and ^13C NMR and mass spectrometry. ^1H and ^13C NMR spectra were recorded on a 400 MHz Bruker Avance III Nanobay spectrometer with Ultrashield and analyzed by use of MestReNova analytical chemistry software. Chemical shifts are in ppm, and coupling constants are in hertz (Hz). ES mass spectra were obtained from an Esquire 3000 plus ion trap mass spectrometer from Bruker Daltonics. Purities were determined with two diverse HPLC systems based either on mass determination or on UV detection. A Waters acquity UPLC system coupled to a Waters TQD ESI mass spectrometer or a Waters SQD ESI mass spectrometer was used both in combination with a Waters TUV detector. Water (A) and CH3CN (B) were used as eluents. LC-MS spectra were recorded on an Agilent 1100 series HPLC system using a Alltech Prevail C18 column (2.1 mm×50 mm, 3 μm) coupled with an Esquire 3000 plus as MS detector, and a “method A” 5-100% B, 20 min gradient was used with a flow rate of 0.2 mL/min. Formic acid, 0.1%, was added to solvents A and B. Waters Acquity UPLC BEH C18 1.7 μm, 2.1 mm×50 mm column was used. Solvent A consisted of water with 0.1% formic acid. Solvent B consisted of acetonitrile with 0.1% formic acid. Method I involved the following: 0.15 min 95% A, 5% B, then in 1.85 min from 95% A, 5% B to 95% B, 5% A, then 0.25 min (0.350 mL/min), 95% B, 5% A. The wavelength for UV detection was 254 nm. Method II involved the following: flow 0.4 mL/min, 0.25 min 95% A, 5% B, then in 4.75 min to 95% B, 5% A, then 0.25 min 95% B, 5% A, followed by 0.75 min 95% A, 5% B. The wavelength for UV detection was 214 nm. Where necessary, flash purification was performed on a Biotage ISOLERA One flash system equipped with an internal variable dual wavelength diode array detector (200-400 nm). For normal phase purifications SNAP cartridges (10-340 g, flow rate of 10-100 mL/min) were used, and reversed phase purifications were done making use of KP-C18 containing cartridges. Dry sample loading was done by self-packing samplet cartridges using silica and Celite 545, respectively, for normal and reversed phase purifications. Gradients used varied for each purification. Mouse and rat plasma came from Innovative Research. The turbidity in the kinetic solubility experiments was measured using the UV/vis spectrophotometer Synergy MX, Biotek with Gen5.

Question: With `Nc1cc(S(=O)(=O)N2CCOCC2)ccc1NC1CCCCC1` [Compound 32, N1-cyclohexyl-4-(morpholinosulfonyl)benzene-1,2-diamine] as the compound, how does the solubility read?
Answer: Its solubility is > 200 µM.

Question: Which solubility does the source give for `CN1CCN(S(=O)(=O)c2ccc(NC3CCCCC3)c(N)c2)CC1` [Compound 31, N1-cyclohexyl-4-((4-methylpiperazin-1-yl)sulfonyl)benzene-1,2-diamine] here?
Answer: The solubility was > 200 µM.
